Test results reported in US9611485B2, “Polynucleotide and polypeptide sequences associated with herbicide tolerance” (priority 2010, dated 2017).

What was measured:
[1] = tested on: tobacco T1 seeds and wild type seeds; assay: Germination of tobacco T1 seeds on Gelrite plates containing saflufenacil; assay type: in vivo
Protocol: Unsprayed clones of the transgenic tobacco plants described above were grown in a greenhouse until flowering and were allowed to self pollinate. Seeds were harvested and used for further experiments. Transgene insertion copy number was not determined for these plants, but for single copy plants the seeds would be expected to segregate 1homozygous:2hemizygous:1null for the transgene.
T1 seeds from multiple transgenic events carrying the resistant and susceptible alleles, and wild type seeds, were germinated on 1.5% Gelrite (no nutrients or minerals) plates and kept in a growth chamber at 26° C. under a 16 hr light regime. Plate media contained saflufenacil at concentrations down to 0.45 parts per billion (ppb). […] All seed germinated and grew normally on Gelrite plates lacking saflufenacil.

[2] = tested on: tobacco T1 seedlings and wild type; assay: Saflufenacil soil drench of tobacco T1 seedlings in pots; assay type: in vivo; settings: three days after treatment
Text: T1 seeds were sown in four inch pots containing soil and allowed to germinate for five days. At this point, with cotyledons visible above the soil, pots were drenched with 100 mls saflufenacil in water at 0.45 ppb. The solution was applied to soil, avoiding direct contact with plant cotyledons.

[3] = tested on: Soybean (cv. Jack) T0 plants; assay: Saflufenacil foliar spray of transgenic T0 soybean plants, visual injury; assay type: in vivo, Glycine max; settings: 3 g/ha foliar spray, 7 days after treatment, 0=no effect, 100=dead plant
Protocol: Soybean was transformed essentially as described in Li et al. (2007) Plant Mol Biol 65:329-341. Soybean (cv. Jack) embryogenic cultures were transformed by particle bombardment with plant expression vectors using a strong constitutive promoter to control the GM ABCT1 SUS (susceptible allele, SEQ ID NO:125) or GM ABCT1 TOL (resistant allele, SEQ ID NO: 124) genes. Stable transgenic events were tested for presence of the transgene by PCR, but no confirmation of expression was performed. Three clonal plants were produced from each transgenic event.
These T0 plants were grown to the V2 to V8 growth stage and then sprayed with saflufenacil at a rate of 3 g/ha. All treatments were applied in a spray volume of 280 L/ha. The spray mixture contained acetone, water, glycerin and surfactant. Treated plants were compared to untreated plants of similar genetic background and evaluated for herbicide injury at seven days after treatment. Visual injury was on a scale of 0 to 100% injury (0=no effect to 100=dead plant). Plants are also visually evaluated for agronomic effects such as interveinal and veinal chlorosis, reddening, leaf malformation, necrosis, apical withering/death/regrowth, and whole plant height.

[4] = tested on: Tobacco (cv. Petite Havana) T0 plants; assay: Saflufenacil foliar spray of transgenic T0 tobacco plants, visual injury; assay type: in vivo; settings: 12.5 g/ha spray; for mean visual injury score: tobacco T0 plants carrying the susceptible allele
Protocol: Tobacco (cv. Petite Havana) was transformed by particle bombardment with plant expression vectors using a strong constitutive promoter to control the GM ABCT1 SUS (susceptible allele, SEQ ID NO: 125) or GM ABCT1 RES (resistant allele, SEQ ID NO: 124) genes using the following protocol: • 1) Weigh 1 mg 0.6 micron gold powder (for 8 shots). Add 1 ml 100% ethanol Sonicate 2 min. Centrifuge at 13,000 rpm×5 sec. Remove Supernatant. Repeat 3 times. • 2) Add 1 ml sterile double-deionized water. Sonicate 2 min. Centrifuge at 13,000 rpm×5 sec. Remove Supernatant. Repeat 2 times. • 3) Add 321 μl sterile water. Vortex and sonicate 2 min. • 4) Add 4 μl of DNA (1 μg/μl concentration) and vortex briefly. • 5) Add 100 μl of 5M CaCl2 and 80 μl of 0.1M Spermidine (14 μl of Spermidine+985.6 μl water prepared freshly). Mix with finger and vortex 2 sec. • 6) Incubate on ice for 1 min. Spin down at 13,000 rpm for 2 sec and remove supernatant. • 7) Add 500 μl of 100% ethanol. Pipette up and down a few times to wash. (It is important to break all big aggregates at this stage). Vortex 2 sec. Spin down at 13,000 rpm for 2 sec and remove supernatant. • 8) Re-suspend in 85 μl of 100% ethanol. Keep on ice. Vortex solution before spreading 10 μl of DNA prep on flying disk. (Sterilize in 100% ethanol for 5-10 min and air dry, also sterilize and air dry 1100 psi rupture disk). • 9) Place tobacco leaf (cv. Petit Havana) abaxial side up in the center of a petri plate containing MS01 medium (MS+B5 vitamins (Phytotechnology M519), Sucrose 30 g/l, agar 8 g/l, BA 2 mg/L, NAA 0.05 mg/L). • 10) Bombard with 28 mm Hg vacuum, position plate at 9 cm (2nd position from bottom), 1100 psi rupture disk. After bombardment, invert leaves so bombarded side and petioles are in contact with medium. • 11) Maintain leaves under 16 hrs/day dim light (<5 μEinstein) for 2-3 days. • 12) Cut leaves into small pieces (0.5 cm×0.5 cm) in MSB-Co (MS+Vit, Glucose 10 g/L, BA 50 mg/L, pH5.2), then blot dry on sterile filter paper and place with bombarded side in contact with the MS01 medium containing hygromycin 25 mg/L under 16 hrs/day light (80-120 μEinstein). When shoots appear, cut and place directly in selection media. • 13) Until shoots appear, change selection medium every 2 weeks. • 14) When entire plantlets are formed (1-2 cm high), leaves are cut into approx. 1-2 mm segments and re-cultured on MS01 medium containing hygromycin 25 mg/L and 8 g/L agar. Subculture to fresh medium every 3 weeks. When new shoots appear, isolate single shoots and transfer onto ½ MS media (M519 2.22 g/L, sucrose 15 g/L, agar 6 g/L).
Stable transgenic events were tested for presence of the transgene by PCR, and transcription of the genes was confirmed by qRT-PCR. Three clonal plants were produced from each transgenic event; two plants from each event were used for the spray experiment.
Plants were grown until 3 to 5 expanded true leaves were present and then sprayed with saflufenacil at a rate of 12.5 g/ha. All treatments were applied in a spray volume of 140 L/ha. Ammonium sulfate was included at 1% w/v. Treated plants were compared to untreated plants of similar genetic background and evaluated for herbicide injury at seven and seventeen days after treatment. Visual injury was on a scale of 0 to 100% injury (0=no effect to 100=dead plant).

With CC(C)N(C)S(=O)(=O)NC(=O)c1cc(-n2c(=O)cc(C(F)(F)F)n(C)c2=O)c(F)cc1Cl [saflufenacil] the “difference between transgenic seed with either GM ABCT1 allele and wild type seed” value ([1]; Gelrite plates containing saflufenacil down to 0.45 ppb) was “No visible difference”, the “seed germination and growth” value ([1]; plate media at 0.91 ppb and 0.45 ppb, transgenic T1 and wild type tobacco seed) was “seeds germinated but were bleached and failed to grow” and the seed germination ([1]; plate media at concentrations above 0.91 ppb, transgenic T1 and wild type tobacco seed) was “no germination was observed”. For the same compound, the seedling condition ([2]; 100 mls at 0.45 ppb drenched to soil five days after sowing) was “all seedlings were severely bleached and appeared dead”, the “differences between transgenic lines and wild type” value ([2]; 100 mls at 0.45 ppb soil drench) was “No visible differences” and the mean visual injury ([3]; soybean cv. Jack T0 plants carrying the resistant allele (GM ABCT1 TOL)) was 72%. The “mean visual injury score” value ([3]; soybean cv. Jack T0 plants carrying the susceptible allele (GM ABCT1 SUS)) was 59%, the mean visual injury ([3]; wild type soy plants) was 84% and the mean visual injury ([4]; tobacco T0 plants carrying the resistant allele, seven days after treatment) was 63%. For the same compound, the mean visual injury ([4]; tobacco T0 plants carrying the resistant allele, seventeen days after treatment) was 46%, the “mean visual injury score” value ([4]; seven days after treatment) was 77% and the “mean visual injury score” value ([4]; seventeen days after treatment) was 61%. The mean visual injury ([4]; transgenic control tobacco plants carrying an unrelated transgene, seven days after treatment) was 63% and the mean visual injury ([4]; transgenic control tobacco plants carrying an unrelated transgene, seventeen days after treatment) was 53%.
